Measurements from patent US20060264419A1 (priority 2003, published 2006).

How the values were obtained:
[1] = molecular target: 5-HT2A receptors (Rattus norvegicus, UniProt P14842); assay: in-vitro affinity to 5-HT2A receptors, displacement of [3H]ketanserine (Example A1); assay type: binding; conditions: read-out: HT2A IC50
Text: The 5-HT2A receptors are exposed both to [^3H]ketanserine (a substance which is known for its affinity to the receptor) and also to the test compound. The decrease in the affinity of [^3H]ketanserine to the receptor is an indication of the affinity of the test substance to the 5-HT2A receptor.

[2] = molecular target: T1, 5 HT2C receptor (Homo sapiens, UniProt P28335); assay: affinity to the 5 HT2C receptor; assay type: binding
T1 sequence (P28335 33-458): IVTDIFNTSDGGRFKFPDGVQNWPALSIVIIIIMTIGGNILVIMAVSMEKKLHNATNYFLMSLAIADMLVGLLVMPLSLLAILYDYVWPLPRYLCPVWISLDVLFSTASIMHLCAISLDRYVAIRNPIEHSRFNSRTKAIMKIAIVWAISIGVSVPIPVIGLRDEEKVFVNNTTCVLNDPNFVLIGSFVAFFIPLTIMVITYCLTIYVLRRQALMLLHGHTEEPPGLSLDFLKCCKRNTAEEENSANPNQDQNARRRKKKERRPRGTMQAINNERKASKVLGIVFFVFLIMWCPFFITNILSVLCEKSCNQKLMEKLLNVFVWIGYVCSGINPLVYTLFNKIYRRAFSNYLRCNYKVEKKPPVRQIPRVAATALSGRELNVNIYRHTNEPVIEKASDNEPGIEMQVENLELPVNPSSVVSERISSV

Chain of 5-HT2A receptors (P14842 whole entry): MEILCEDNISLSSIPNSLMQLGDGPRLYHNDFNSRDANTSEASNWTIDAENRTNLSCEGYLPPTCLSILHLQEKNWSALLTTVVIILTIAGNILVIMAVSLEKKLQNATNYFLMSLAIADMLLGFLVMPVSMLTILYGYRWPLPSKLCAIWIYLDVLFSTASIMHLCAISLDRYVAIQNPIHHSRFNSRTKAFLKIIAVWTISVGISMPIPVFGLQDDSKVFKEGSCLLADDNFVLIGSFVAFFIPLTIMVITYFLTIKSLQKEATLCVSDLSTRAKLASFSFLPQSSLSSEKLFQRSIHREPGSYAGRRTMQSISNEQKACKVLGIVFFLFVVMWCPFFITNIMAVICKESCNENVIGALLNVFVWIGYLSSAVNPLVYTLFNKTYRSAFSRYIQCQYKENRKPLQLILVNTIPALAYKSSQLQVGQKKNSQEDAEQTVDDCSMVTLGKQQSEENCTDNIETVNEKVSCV

Compound | IC50 [1] [µM] | IC50 [2] [µM]
CN1CCN(NCc2cnn(-c3ccc(-c4ccccc4)cc3)c2-c2ccccc2F)CC1 [Example 903, [1-Biphenyl-4-yl-5-(2-fluorophenyl)-1H-pyrazol-4-ylmethyl]-(4-methylpiperazin-1-yl)amine] | 0.014 | 0.47
CN1CCN(Cc2cnn(-c3ccc(-c4ccc(F)cc4)cc3)c2-c2ccccc2)CC1 [Example 900, 1-[1-(4′-Fluorobiphenyl-4-yl)-5-phenyl-1H-pyrazol-4-ylmethyl]-4-methylpiperazine] | 0.013 | 0.31
CCN(CC)Cc1cnn(-c2ccc(-c3ccc(F)cc3)cc2)c1-c1ccc(Cl)cc1 [Example 1016, [5-(4-Chlorophenyl)-1-(4′-fluoro-biphenyl-4-yl)-1H-pyrazol-4-ylmethyl]diethylamine] | 0.22 | 1
CN1CCN(Cc2cnn(-c3ccc(-c4ccccc4)cn3)c2-c2ccccc2F)CC1 [Example 922, 1-[5-(2-Fluorophenyl)-1-(5-phenyl-pyridin-2-yl)-1H-pyrazol-4-ylmethyl]-4-methylpiperazine] | 0.024 | 0.66
CC(C)N1CCN(Cc2cnn(-c3ccc(-c4ccc(F)cc4)cc3)c2-c2ccc(Cl)cc2)CC1 [Example 1054, 1-[5-(4-Chlorophenyl)-1-(4′-fluoro-biphenyl-4-yl)-1H-pyrazol-4-ylmethyl]-4-isopropylpiperazine] | 0.44 | 1
CCN1CCN(Cc2cnn(-c3ccc(-c4ccccc4)cc3)c2-c2ccccc2F)CC1 [Example 927, 1-[1-Biphenyl-4-yl-5-(2-fluoro-phenyl)-1H-pyrazol-4-ylmethyl]-4-ethylpiperazine] | 0.028 | 1
CC(C)c1ccc(-c2ccc(-n3ncc(CN4CCN(C)CC4)c3-c3ccccc3F)cc2)cc1 [Example 958, 1-[5-(2-Fluorophenyl)-1-(4′-isopropylbiphenyl-4-yl)-1H-pyrazol-4-ylmethyl]-4-methyl-piperazine] | 0.0581 | 0.83
OC1CCN(Cc2cnn(-c3ccc(-c4ccc(F)cc4)cc3)c2-c2ccc(Cl)cc2)C1 (stereo not drawn) [Example 1003, 1-[5-(4-Chlorophenyl)-1-(4′-fluoro-biphenyl-4-yl)-1H-pyrazol-4-ylmethyl]pyrrolidin-3-ol] | 0.17 | 1
Fc1ccccc1-c1c(CN2CCCCC2)cnn1-c1ccc(-c2ccccc2)cc1 [Example 931, 1-[1-Biphenyl-4-yl-5-(2-fluorophenyl)-1H-pyrazol-4-ylmethyl]piperidine] | 0.03 | 1
CCN(CC)Cc1cnn(-c2ccc(-c3ccc(F)cc3)cc2)c1-c1ccccc1Cl [Example 951, [5-(2-Chlorophenyl)-1-(4′-fluoro-biphenyl-4-yl)-1H-pyrazol-4-ylmethyl]diethylamine] | 0.053 | 1
CN1CCN(Cc2cnn(-c3ccc(-c4cc(F)ccc4F)cc3)c2-c2ccccc2)CC1 [Example 981, 1-[1-(2′,5′-Difluorobiphenyl-4-yl)-5-phenyl-1H-pyrazol-4-ylmethyl]-4-methylpiperazine] | 0.11 | 1
CCN(CC)Cc1cnn(-c2ccc(-c3ccccc3)cc2)c1-c1ccccc1F [Example 897, [1-Biphenyl-4-yl-5-(2-fluorophenyl)-1H-pyrazol-4-ylmethyl]diethylamine] | 0.011 | 1
CN1CCN(Cc2cnn(-c3ccc(-c4ccc(F)cc4)cc3)c2-c2ccc(Cl)cc2)CC1 [Example 1057, 1-[5-(4-Chlorophenyl)-1-(4′-fluoro-biphenyl-4-yl)-1H-pyrazol-4-ylmethyl]-4-methylpiperazine] | 0.46 | 1
CN1CCC(N(C)Cc2cnn(-c3ccc(-c4ccccc4)cc3)c2-c2ccccc2F)C1 (stereo not drawn) [Example 907, [1-Biphenyl-4-yl-5-(2-fluorophenyl)-1H-pyrazol-4-ylmethyl]methyl-(1-methylpyrrolidin-3-yl)amine] | 0.016 | 0.084
CN(C)CCN(C)Cc1cnn(-c2ccc(-c3ccc(F)cc3)cc2)c1-c1ccccc1Cl [Example 946, N-[5-(2-chlorophenyl)-1-(4′-fluoro-biphenyl-4-yl)-1H-pyrazol-4-ylmethyl]-N,N′,N′-trimethyl-ethane-1,2-diamine] | 0.044 | 0.49
CN(C)Cc1cnn(-c2ccc(-c3ccccc3)cc2)c1-c1ccccc1F [Example 914, [1-Biphenyl-4-yl-5-(2-fluorophenyl)-1H-pyrazol-4-ylmethyl]dimethylamine] | 0.021 | 0.45
CN(C)CCc1cnn(-c2ccc(-c3ccc(F)cc3)cc2)c1-c1ccccc1F [Example 890, {2-[1-(4′-Fluorobiphenyl-4-yl)-5-(2-fluoro-phenyl)-1H-pyrazol-4-yl]ethyl}dimethylamine] | 0.0015 | 0.0274
CN1CC2CC1CN2Cc1cnn(-c2ccc(-c3ccccc3)cc2)c1-c1ccccc1F (stereo not drawn) [Example 977, 2-[1-Biphenyl-4-yl-5-(2-fluorophenyl)-1H-pyrazol-4-ylmethyl]-5-methyl-2,5-diazabicyclo-[2.2.1]heptane] | 0.094 | 0.68
